The test system of one experiment is E. faecalis 29212. The experiment can be described thus: microbe, parasite or virus in culture. Format: cell-based. Particulars: Enterococcus faecalis.
The subject of a further experiment is S. aureus MRSA5. The experiment is described as follows: microbe, parasite or virus in culture. Format: cell-based. Particulars: Staphylococcus aureus.
The next experiment has as its system S. pneumoniae 700905. The experiment is described as follows: microbe, parasite or virus in culture. Format: cell-based. The note with it: Streptococcus pneumoniae.
The test system of experiment [1] is S. pneumoniae 157E. The experiment can be described thus: animal or person. Format: in vivo, mice. The note with it: Streptococcus pneumoniae, 157E, in Mus musculus, 48 h, read-out: % survival; for responders at 5 mg/kg: sc.
The subject of the next experiment is E. faecium 494. The experiment can be described thus: microbe, parasite or virus in culture. Format: cell-based. The note with it: Enterococcus faecium.
The subject of another experiment is B. cereus 98/2658. The experiment is described as follows: microbe, parasite or virus in culture. Format: cell-based. The note with it: Bacillus cereus.
The subject of a further experiment is B. cereus 98/2620. The experiment can be described thus: microbe, parasite or virus in culture. Format: cell-based. Particulars: Bacillus cereus.
Another experiment relates to B. cereus 97/4144. The experiment is described as follows: microbe, parasite or virus in culture. Format: cell-based. The note with it: Bacillus cereus.
The test system of a further experiment is B. cereus 95/3032. The experiment can be described thus: microbe, parasite or virus in culture. Format: cell-based. The note with it: Bacillus cereus.
In experiment [2] the test system is Peptidoglycan synthesis of S. aureus RN450. The experiment can be described thus: microbe, parasite or virus in culture. The note with it: Staphylococcus aureus. Format: cell-based.
The next experiment has as its system S. aureus RN450. The experiment is described as follows: microbe, parasite or virus in culture. Format: cell-based. Particulars: Staphylococcus aureus.
For the next experiment, the system named is S. aureus RN4250. The experiment is described as follows: microbe, parasite or virus in culture. Format: cell-based. Particulars: Staphylococcus aureus, RN4250.
The subject of experiment [3] is Protein synthesis of S. aureus RN450. The experiment is described as follows: microbe, parasite or virus in culture. Format: cell-based.
Experiment [4] concerns S. pneumoniae 157E. The experiment can be described thus: microbe, parasite or virus in culture. The note with it: Streptococcus pneumoniae. Format: cell-based.

Molecules are shown by their SMILES. In brackets after ≈: the same amount, converted by molar mass.

`CO/N=C(\C)c1cc(CNCC(C)(C)C)c(O)c2c1C[C@H]1C[C@H]3[C@H](N(C)C)C(O)=C(C(N)=O)C(=O)[C@@]3(O)C(O)=C1C2=O` [E]: the MIC against E. faecalis 29212 was determined as 0.25 µg/mL (≈ 0.428 µM); against S. aureus MRSA5, 0.25 µg/mL (≈ 0.428 µM); with S. pneumoniae 700905, 0.06 µg/mL (≈ 0.103 µM); against E. faecium 494 it was 1 µg/mL (≈ 1.71 µM). Moreover, the responders at 10 mg/kg in the experiment with S. pneumoniae 157E [1] (po) is 0%. The responders at 5 mg/kg with S. pneumoniae 157E [1] worked out at 40%.
`CC[C@H]1OC(=O)[C@H](C)[C@@H](O[C@H]2C[C@@](C)(OC)[C@@H](O)[C@H](C)O2)[C@H](C)[C@@H](O[C@@H]2O[C@H](C)C[C@H](N(C)C)[C@H]2O)[C@](C)(O)C[C@@H](C)C(=O)[C@H](C)[C@@H](O)[C@]1(C)O` [Erythromycin]: the MIC against B. cereus 98/2658 turned out to be 1 µg/mL (≈ 1.36 µM); against B. cereus 98/2620 it was 0.06 µg/mL (≈ 0.0818 µM); in the experiment on B. cereus 97/4144, 0.125 µg/mL (≈ 0.17 µM); in the experiment on B. cereus 95/3032, 0.125 µg/mL (≈ 0.17 µM).
For `CN(C)[C@@H]1C(O)=C(C(N)=O)C(=O)[C@@]2(O)C(O)=C3C(=O)c4c(O)ccc(B5OC(C)(C)C(C)(C)O5)c4C[C@H]3C[C@@H]12` [F], the MIC is 0.5 µg/mL (≈ 0.925 µM) in the experiment with E. faecalis 29212, 0.5 µg/mL (≈ 0.925 µM) in the experiment with S. aureus MRSA5, 0.25 µg/mL (≈ 0.463 µM) against S. pneumoniae 700905 and 1 µg/mL (≈ 1.85 µM) in the experiment on E. faecium 494. Besides, the responders at 50 mg/kg in the experiment with S. pneumoniae 157E [1] (po) is 100%. Besides, the responders at 5 mg/kg in the experiment on S. pneumoniae 157E [1] came to 100%.
Consider `CN(C)[C@@H]1C(O)=C(C(N)=O)C(=O)[C@@]2(O)C(O)=C3C(=O)c4c(O)ccc(C(=O)CN5CCCCC5)c4C[C@H]3C[C@@H]12` [O], for which the IC50 is more than 32 µg/mL in experiment [2] (read-out: Peptidoglycan synthesis IC50) and 0.33 µg/mL (≈ 0.612 µM) in experiment [3] (Staphylococcus aureus, read-out: Protein synthesis IC50). Besides, the IC90 was more than 32 µg/mL in experiment [2] (read-out: Peptidoglycan synthesis IC90) and 0.92 µg/mL (≈ 1.71 µM) in experiment [3] (Staphylococcus aureus, read-out: Protein synthesis IC90). Besides, the MIC against S. aureus RN450 and against S. aureus RN4250 was 0.06 µg/mL (≈ 0.111 µM) throughout. Also, the “macromolecular synthesis profile in words” value in experiment [3] was “profile similar to class I compounds”.
As for `CN(C)[C@@H]1C(O)=C(C(N)=O)C(=O)[C@@]2(O)C(O)=C3C(=O)c4c(O)ccc(-c5cncc(CN6CCCCC6)c5)c4C[C@H]3C[C@@H]12` [P], the MIC against S. aureus RN450 and with S. aureus RN4250 was 0.06 µg/mL (≈ 0.102 µM) throughout.
For the compound `CC(C)N(C)Cc1ccc(-c2ccc(O)c3c2C[C@H]2C[C@H]4[C@H](N(C)C)C(O)=C(C(N)=O)C(=O)[C@@]4(O)C(O)=C2C3=O)o1` [Q], the MIC against S. aureus RN450 and in the experiment on S. aureus RN4250 was 0.06 µg/mL (≈ 0.106 µM) throughout.
As for `C=CCN(C)Cc1cncc(-c2ccc(O)c3c2C[C@H]2C[C@H]4[C@@H](N(C)C)C(O)=C(C(N)=O)C(=O)[C@@]4(O)C(O)=C2C3=O)c1` [T], the MIC in the experiment on S. aureus RN450 and with S. aureus RN4250 was 0.06 µg/mL (≈ 0.104 µM) in each case.
For `CN(C)[C@@H]1C(O)=C(C(N)=O)C(=O)[C@@]2(O)C(O)=C3C(=O)c4c(O)ccc(CN5CCC(F)CC5)c4C[C@H]3C[C@@H]12` [U], the MIC with S. aureus RN450 and in the experiment on S. aureus RN4250 was 0.06 µg/mL (≈ 0.113 µM) in each case.
On to `CN[C@H](CC(C)C)C(=O)N[C@H]1C(=O)N[C@@H](CC(N)=O)C(=O)N[C@H]2C(=O)N[C@H]3C(=O)N[C@H](C(=O)N[C@H](C(=O)O)c4cc(O)cc(O)c4-c4cc3ccc4O)[C@H](O)c3ccc(c(Cl)c3)Oc3cc2cc(c3O[C@@H]2O[C@H](CO)[C@@H](O)[C@H](O)[C@H]2O[C@H]2C[C@](C)(N)[C@H](O)[C@H](C)O2)Oc2ccc(cc2Cl)[C@H]1O` [Vancomycin], for which the MIC in the experiment on B. cereus 98/2658 stood at 2 µg/mL (≈ 1.38 µM); against B. cereus 98/2620 it was 1 µg/mL (≈ 0.69 µM); in the experiment on B. cereus 97/4144 it was 1 µg/mL (≈ 0.69 µM); with B. cereus 95/3032, 1 µg/mL (≈ 0.69 µM).
For `CC(C)NCc1ccc(-c2ccc(O)c3c2C[C@H]2C[C@H]4[C@H](N(C)C)C(O)=C(C(N)=O)C(=O)[C@@]4(O)C(O)=C2C3=O)cc1` [W], the MIC against S. aureus RN450 and against S. aureus RN4250 was 0.06 µg/mL (≈ 0.107 µM) throughout.
As for `COc1ccc(CN(C)C)c(-c2ccc(O)c3c2C[C@H]2C[C@H]4[C@H](N(C)C)C(O)=C(C(N)=O)C(=O)[C@@]4(O)C(O)=C2C3=O)c1` [X], the MIC in the experiment with S. aureus RN450 and in the experiment on S. aureus RN4250 was 0.06 µg/mL (≈ 0.104 µM) each time.
Consider `COCCNCc1ccc(-c2ccc(O)c3c2C[C@H]2C[C@H]4[C@H](N(C)C)C(O)=C(C(N)=O)C(=O)[C@@]4(O)C(O)=C2C3=O)cc1` [Y], for which the MIC in the experiment on S. aureus RN450 and against S. aureus RN4250 was 0.06 µg/mL (≈ 0.104 µM) each time.
Turning to `CN(C)[C@@H]1C(O)=C(C(N)=O)C(=O)[C@@]2(O)C(O)=C3C(=O)c4c(O)ccc(C#Cc5ccccn5)c4C[C@H]3C[C@@H]12` [Z], the figures for the MIC against S. aureus RN450, against S. aureus MRSA5 and against S. pneumoniae 157E [4] were 0.13 µg/mL (≈ 0.252 µM), 0.5 µg/mL (≈ 0.97 µM) and 0.06 µg/mL (≈ 0.116 µM), respectively.
